Patent US20160194380A1, “POTENT INHIBITORS OF HUMAN MATRIPTASE DERIVED FROM MCOTI-II VARIANTS” (MERCK PATENT GMBH, priority 2013, published 2016)
Where a SMILES comes first, the peptide text is derived from it. Bridges are numbered along the chain shown (N, C = ends).

Legend:
matriptase-1 = molecular target: T1, matriptase-1 (Homo sapiens, UniProt Q9Y5Y6); conditions: literature; cited from earlier work
T1 sequence (Q9Y5Y6 1-855): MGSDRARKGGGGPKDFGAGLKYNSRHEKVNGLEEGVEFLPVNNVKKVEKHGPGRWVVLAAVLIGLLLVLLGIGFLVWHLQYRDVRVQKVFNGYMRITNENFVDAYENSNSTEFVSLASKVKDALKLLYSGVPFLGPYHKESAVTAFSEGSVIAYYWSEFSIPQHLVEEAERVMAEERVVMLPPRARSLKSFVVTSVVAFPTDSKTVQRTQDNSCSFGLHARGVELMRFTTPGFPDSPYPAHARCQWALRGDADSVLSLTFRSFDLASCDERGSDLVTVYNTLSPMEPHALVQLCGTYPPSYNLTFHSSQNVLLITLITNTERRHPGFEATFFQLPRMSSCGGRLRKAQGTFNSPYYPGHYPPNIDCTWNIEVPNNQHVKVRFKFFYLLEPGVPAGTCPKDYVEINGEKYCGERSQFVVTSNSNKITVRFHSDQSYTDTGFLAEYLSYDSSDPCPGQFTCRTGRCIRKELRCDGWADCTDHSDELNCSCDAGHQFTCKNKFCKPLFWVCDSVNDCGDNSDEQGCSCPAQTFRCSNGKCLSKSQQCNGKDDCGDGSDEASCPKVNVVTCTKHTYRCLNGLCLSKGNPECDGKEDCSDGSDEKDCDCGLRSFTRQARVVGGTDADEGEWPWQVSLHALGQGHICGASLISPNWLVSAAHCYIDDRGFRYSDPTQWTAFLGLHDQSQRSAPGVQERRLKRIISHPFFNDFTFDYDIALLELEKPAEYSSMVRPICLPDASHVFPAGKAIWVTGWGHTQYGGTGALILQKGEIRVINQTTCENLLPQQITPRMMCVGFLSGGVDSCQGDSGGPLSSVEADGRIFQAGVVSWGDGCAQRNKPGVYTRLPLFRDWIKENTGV

Human matriptase-1 [1] = molecular target: T2, Human matriptase-1 (Homo sapiens, UniProt Q9Y5Y6); test: Protease inhibition assay, matriptase-1; type: biochemical; conditions: substrate-independent inhibition constant
T2 construct: made in house
T2 sequence (Q9Y5Y6 615-855 limits assumed): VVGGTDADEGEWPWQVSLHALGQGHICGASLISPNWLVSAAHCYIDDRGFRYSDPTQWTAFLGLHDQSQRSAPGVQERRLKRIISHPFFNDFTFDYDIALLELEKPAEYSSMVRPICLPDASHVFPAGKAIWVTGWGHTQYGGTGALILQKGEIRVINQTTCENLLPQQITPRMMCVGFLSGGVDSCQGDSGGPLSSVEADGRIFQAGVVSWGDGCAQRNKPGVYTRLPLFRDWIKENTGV
Experimental: (§1) D: Biol. Crystallogr., 69(2013), 114-120; Reinwarth, ChemBioChem, 14(2013), 137-146; Boy, Mol. Imaging Biol. 12(2010), 377-385] Measurements were carried out in triplicates using a Tecan Genios ELISA reader.

[2] = molecular target: T3, Bovine pancreatic trypsin (Bos taurus, UniProt P00760); test: Protease inhibition assay, trypsin; type: biochemical; conditions: substrate-independent inhibition constant
T3 construct: purchased Sigma-Aldrich; host or cells: bovine pancreas
T3 sequence (P00760 24-246): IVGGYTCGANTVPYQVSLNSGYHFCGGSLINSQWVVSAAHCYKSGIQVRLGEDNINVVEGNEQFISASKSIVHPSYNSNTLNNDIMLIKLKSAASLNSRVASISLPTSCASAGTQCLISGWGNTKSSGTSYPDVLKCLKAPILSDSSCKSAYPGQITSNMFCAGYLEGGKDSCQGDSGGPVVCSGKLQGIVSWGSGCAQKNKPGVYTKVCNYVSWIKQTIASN
Experimental: as §1

Human matriptase-1 [3] = test: Protease inhibition assay, matriptase-1; type: biochemical; conditions: matriptase-1 versus trypsin
Experimental: as §1

[4] = system: pro-uPA activation by matriptase-1 on human prostate carcinoma cancer cells (PC-3); test: Cell inhibition assay: inhibition of pro-uPA activation on PC-3 cells; type: cell-based; conditions: overnight incubation, read-out: IC50 (uPA substrate turnover, indirect determination)
Experimental: Urokinase-type plasminogen activator (uPA) causes the degradation of the extracellular matrix and plays a critical role in tumor invasion and metastasis.
Human prostate cancer cells (PC-3, Merck KGaA) were cultured in DMEM medium with 10% FCS at 37° C. and 5% CO2, washed with cation-free PBS and harvested by scraping. In the following 1×10^5 cells were incubated in presence of 250 μM Bz-β-Ala-Gly-Arg-pNA.AcOH (American Diagnostica) and the inhibitor of interest in defined dilutions overnight. Product formation was monitored at 405 nm before and after incubation in a microplate reader. IC50 was calculated by non-linear regression using SigmaPlot 11.

| Compound | Ki (matriptase-1), previously reported (matriptase-1) | Selectivity, previously reported (matriptase-1) | Ki (Human matriptase-1 [1]) [µM] | Ki [2] [µM] | Inhibitory activity for matriptase-1 relative to trypsin (Human matriptase-1 [3]) | IC50 [4] [µM] |
| --- | --- | --- | --- | --- | --- | --- |
| H-R-Q-A-R-Bt | picomolar | low selectivity | – | – | – | – |
| CC[C@H](C)[C@@H]1NC(=O)[C@@H]2CSSC[C@H](NC(=O)[C@@H](NC(=O)CNC(=O)[C@@H](N)CCCCN)C(C)C)C(=O)N3CCC[C@H]3C(=O)N[C@@H](CCCCN)C(=O)N[C@@H](C(C)C)C(=O)N[C@@H](CC(C)C)C(=O)N[C@@H](CCCNC(=N)N)C(=O)N[C@@H](CCCCN)C(=O)N[C@H]3CSSC[C@H](NC1=O)C(=O)N[C@@H](CCCNC(=N)N)C(=O)N[C@@H](C)C(=O)N[C@@H](CC(N)=O)C(=O)NCC(=O)N[C@@H](Cc1ccc(O)cc1)C(=O)N[C@H](C(=O)NCC(N)=O)CSSC[C@H](NC(=O)[C@H](CC(=O)O)NC(=O)[C@H](CO)NC(=O)[C@H](CC(=O)O)NC(=O)[C@H](CCCCN)NC(=O)[C@H](CCCNC(=N)N)NC3=O)C(=O)N1CCC[C@H]1C(=O)NCC(=O)N[C@@H](C)C(=O)N2 [Inhibitor 6] (H-KGVCPKVLRKCRKDSDCPGACICRANGYCG-NH2; disulfide 4-21, 11-23, 17-29) | – | – | 0.0078 ± 0.001 | 0.0223 ± 0.003 | – | – |
| CC[C@H](C)[C@H](N)C(=O)NCC(=O)N[C@H](C(=O)N[C@H]1CSSC[C@@H]2NC(=O)[C@H](C)NC(=O)CNC(=O)[C@@H]3CCCN3C(=O)[C@@H]3CSSC[C@@H](C(=O)NCC(N)=O)NC(=O)[C@H](Cc4ccc(O)cc4)NC(=O)CNC(=O)[C@H](CC(N)=O)NC(=O)CNC(=O)[C@H](CCCNC(=N)N)NC(=O)[C@H](CSSC[C@H](NC(=O)[C@H](C)NC(=O)[C@H](CCCNC(=N)N)NC(=O)[C@H](CC(C)C)NC(=O)[C@H](CC(C)C)NC(=O)[C@H](CCCCN)NC(=O)[C@@H]4CCCN4C1=O)C(=O)N[C@@H](CCCNC(=N)N)C(=O)N[C@@H](CCCNC(=N)N)C(=O)N[C@@H](CC(=O)O)C(=O)N[C@@H](CO)C(=O)N[C@@H](CC(=O)O)C(=O)N3)NC(=O)[C@H]([C@@H](C)CC)NC2=O)C(C)C [Inhibitor 4] (H-IGVCPKLLRACRRDSDCPGACICRGNGYCG-NH2; disulfide 4-21, 11-23, 17-29) | – | – | 0.0044 ± 0.0006 | 0.0317 ± 0.0043 | – | – |
| CC[C@H](C)[C@@H]1NC(=O)[C@@H]2CSSC[C@H](NC(=O)[C@@H](NC(=O)CNC(=O)[C@@H](N)Cc3c[nH]c4ccccc34)C(C)C)C(=O)N3CCC[C@H]3C(=O)N[C@@H](CCCCN)C(=O)N[C@@H](C(C)C)C(=O)N[C@@H](CC(C)C)C(=O)N[C@@H](CCCNC(=N)N)C(=O)N[C@@H](CC(N)=O)C(=O)N[C@H]3CSSC[C@H](NC1=O)C(=O)N[C@@H](CC(C)C)C(=O)NCC(=O)N[C@@H](CC(N)=O)C(=O)NCC(=O)N[C@@H](Cc1ccc(O)cc1)C(=O)N[C@H](C(=O)NCC(N)=O)CSSC[C@H](NC(=O)[C@H](CC(=O)O)NC(=O)[C@H](CO)NC(=O)[C@H](CC(=O)O)NC(=O)[C@H](CCCNC(=N)N)NC(=O)[C@H](CCCNC(=N)N)NC3=O)C(=O)N1CCC[C@H]1C(=O)NCC(=O)N[C@@H](C)C(=O)N2 [Inhibitor 7] (H-WGVCPKVLRNCRRDSDCPGACICLGNGYCG-NH2; disulfide 4-21, 11-23, 17-29; N-terminus assumed) | – | – | 0.00083 ± 0.00014 | 0.0358 ± 0.0047 | approximately fortyfold | 0.213 |
| CC[C@H](C)[C@@H]1NC(=O)[C@@H]2CSSC[C@H](NC(=O)[C@H](CCCNC(=N)N)NC(=O)[C@H](CCCNC(=N)N)NC(=O)[C@@H](N)CC(N)=O)C(=O)N3CCC[C@H]3C(=O)N[C@@H](CCCCN)C(=O)N[C@@H](C(C)C)C(=O)N[C@@H](CC(C)C)C(=O)N[C@@H](CCCCN)C(=O)N[C@@H](C)C(=O)N[C@H]3CSSC[C@H](NC1=O)C(=O)N[C@@H](CCCNC(=N)N)C(=O)NCC(=O)N[C@@H](CC(N)=O)C(=O)NCC(=O)N[C@@H](Cc1ccc(O)cc1)C(=O)N[C@H](C(=O)NCC(N)=O)CSSC[C@H](NC(=O)[C@H](CC(=O)O)NC(=O)[C@H](CO)NC(=O)[C@H](CC(=O)O)NC(=O)[C@H](CCCNC(=N)N)NC(=O)[C@H](CCCNC(=N)N)NC3=O)C(=O)N1CCC[C@H]1C(=O)NCC(=O)N[C@@H](C)C(=O)N2 [Inhibitor 5] | – | – | 0.0033 ± 0.0004 | 0.0192 ± 0.0028 | – | – |
